How the values were obtained:
[1] = system: Hep 3B2; assay: Antiproliferative activity against human Hep3B cells incubated for 72 hrs by Cell counting kit 8 method; format: functional, cell-based
[2] = system: Huh-7; assay: Antiproliferative activity against human Huh-7 cells incubated for 72 hrs by Cell counting kit 8 method; format: functional, cell-based; details: Huh-7, 72 h
[3] = biological target: T1, Fibroblast growth factor receptor 4 (Homo sapiens, UniProt P22455); assay: Inhibition of FGFR4 (unknown origin) at 100 nM incubated for 10 mins followed by substrate addition measured after 60 mins by ADP-Glo luminescence assay relative to control; details: time 70.0 min
Target sequence in this assay (P22455 22-802 limits assumed): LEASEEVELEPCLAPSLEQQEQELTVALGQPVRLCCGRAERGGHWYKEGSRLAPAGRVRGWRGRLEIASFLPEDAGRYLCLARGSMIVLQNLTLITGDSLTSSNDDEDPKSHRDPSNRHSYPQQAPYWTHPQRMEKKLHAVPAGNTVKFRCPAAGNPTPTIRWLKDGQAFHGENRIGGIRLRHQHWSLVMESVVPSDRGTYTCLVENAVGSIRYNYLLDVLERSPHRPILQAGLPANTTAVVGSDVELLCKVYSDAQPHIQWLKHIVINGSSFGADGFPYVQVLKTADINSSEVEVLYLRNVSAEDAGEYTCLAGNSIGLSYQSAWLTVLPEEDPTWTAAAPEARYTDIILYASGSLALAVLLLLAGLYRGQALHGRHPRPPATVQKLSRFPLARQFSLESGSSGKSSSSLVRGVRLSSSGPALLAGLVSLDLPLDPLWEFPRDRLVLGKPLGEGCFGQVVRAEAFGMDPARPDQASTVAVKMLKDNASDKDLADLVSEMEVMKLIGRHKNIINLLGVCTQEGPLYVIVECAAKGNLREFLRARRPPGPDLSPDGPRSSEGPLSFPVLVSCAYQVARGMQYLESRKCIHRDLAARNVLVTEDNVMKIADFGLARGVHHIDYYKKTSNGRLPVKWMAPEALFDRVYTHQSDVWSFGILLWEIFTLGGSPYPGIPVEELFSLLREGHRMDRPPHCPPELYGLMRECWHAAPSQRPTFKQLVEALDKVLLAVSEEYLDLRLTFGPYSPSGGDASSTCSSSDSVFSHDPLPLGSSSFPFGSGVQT

[4] = MRT (0 to t) in Sprague-Dawley rat measured at 2 mg/kg, iv for 0.083 to 24 hrs by LC-MS/MS analysis; format: ADME, organism-based; details: in vivo, time 0.083-24 hrs
[5] = Half life in Sprague-Dawley rat measured at 10 mg/kg, po for 0.083 to 24 hrs by LC-MS/MS analysis; format: ADME, organism-based; details: in vivo, time 0.083-24 hrs
[6] = biological target: Fibroblast growth factor receptor 2 (Homo sapiens, UniProt P21802); assay: Inhibition of FGFR2 (unknown origin) incubated for 10 mins followed by substrate addition measured after 60 mins by ADP-Glo luminescence assay
[7] = MRT (0 to infinity) in Sprague-Dawley rat measured at 10 mg/kg, po for 0.083 to 24 hrs by LC-MS/MS analysis; format: ADME, organism-based; details: in vivo, time 0.083-24 hrs
[8] = MRT (0 to infinity) in Sprague-Dawley rat measured at 2 mg/kg, iv for 0.083 to 24 hrs by LC-MS/MS analysis; format: ADME, organism-based; details: in vivo, time 0.083-24 hrs
[9] = Cmax in Sprague-Dawley rat measured at 10 mg/kg, po for 0.083 to 24 hrs by LC-MS/MS analysis; format: ADME, organism-based; design: time 0.083-24 hrs, dose 10 mg/kg, route po; details: in vivo
[10] = Tmax in Sprague-Dawley rat measured at 2 mg/kg, iv for 0.083 to 24 hrs by LC-MS/MS analysis; format: ADME, organism-based; details: in vivo, time 0.083-24 hrs
[11] = Cmax in Sprague-Dawley rat measured at 2 mg/kg, iv for 0.083 to 24 hrs by LC-MS/MS analysis; format: ADME, organism-based; design: time upper 24 hrs, time lower 0.083 hrs, dose 2 mg/kg, route iv; details: in vivo
[12] = AUC (0 to infinity) in Sprague-Dawley rat measured at 10 mg/kg, po for 0.083 to 24 hrs by LC-MS/MS analysis; format: ADME, organism-based; design: dose 10 mg/kg, time upper 24 hrs, time lower 0.083 hrs, route po; details: in vivo
[13] = Solubility of the compound in PBS buffer of pH7.4 at 10 mM measured after 2 hrs by LC-MS/MS analysis; format: physicochemical; details: pH 7.4
[14] = Ionization constant, pKa of the compound in PBS buffer at pH 1.42 to 12.33 by electrochemical method; format: physicochemical
[15] = C0 in Sprague-Dawley rat measured at 2 mg/kg, iv for 0.083 to 24 hrs by LC-MS/MS analysis; format: ADME, organism-based; details: in vivo, time 0.083-24 hrs
[16] = MRT (0 to t) in Sprague-Dawley rat measured at 10 mg/kg, po for 0.083 to 24 hrs by LC-MS/MS analysis; format: ADME, organism-based; details: in vivo, time 0.083-24 hrs
[17] = AUC (0 to infinity) in Sprague-Dawley rat measured at 2 mg/kg, iv for 0.083 to 24 hrs by LC-MS/MS analysis; format: ADME, organism-based; design: time lower 0.083 hrs, dose 2 mg/kg, time upper 24 hrs, route iv; details: in vivo
[18] = Oral bioavailability in Sprague-Dawley rat measured at 10 mg/kg for 0.083 to 24 hrs by LC-MS/MS analysis; format: ADME, organism-based; details: in vivo, time 0.083-24 hrs
[19] = biological target: T1, Fibroblast growth factor receptor 4; assay: Inhibition of FGFR4 (unknown origin) incubated for 10 mins followed by substrate addition measured after 60 mins by ADP-Glo luminescence assay
Target sequence in this assay (P22455 whole entry): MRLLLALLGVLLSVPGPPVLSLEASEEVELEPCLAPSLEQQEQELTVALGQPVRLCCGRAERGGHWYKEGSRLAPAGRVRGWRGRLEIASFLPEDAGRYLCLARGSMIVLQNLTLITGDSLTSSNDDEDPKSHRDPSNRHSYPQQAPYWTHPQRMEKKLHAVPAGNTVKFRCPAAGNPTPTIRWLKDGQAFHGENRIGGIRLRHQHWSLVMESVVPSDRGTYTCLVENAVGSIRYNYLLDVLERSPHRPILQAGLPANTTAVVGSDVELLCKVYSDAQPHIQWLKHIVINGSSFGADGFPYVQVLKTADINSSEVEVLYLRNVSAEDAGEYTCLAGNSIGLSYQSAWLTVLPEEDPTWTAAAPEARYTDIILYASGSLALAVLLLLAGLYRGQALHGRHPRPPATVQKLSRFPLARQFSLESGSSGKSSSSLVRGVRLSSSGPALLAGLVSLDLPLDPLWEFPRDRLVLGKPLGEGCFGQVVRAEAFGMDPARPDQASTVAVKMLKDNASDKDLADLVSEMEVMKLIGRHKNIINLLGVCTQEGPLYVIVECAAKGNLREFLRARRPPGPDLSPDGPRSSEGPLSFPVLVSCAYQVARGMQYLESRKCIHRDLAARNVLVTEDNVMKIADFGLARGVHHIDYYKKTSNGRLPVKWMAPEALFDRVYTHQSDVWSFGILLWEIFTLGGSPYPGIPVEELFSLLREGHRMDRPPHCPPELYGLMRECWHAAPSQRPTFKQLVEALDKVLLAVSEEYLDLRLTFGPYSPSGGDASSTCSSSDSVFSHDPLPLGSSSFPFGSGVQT

[20] = Clearance in Sprague-Dawley rat measured at 2 mg/kg, iv for 0.083 to 24 hrs by LC-MS/MS analysis; format: ADME, organism-based; details: in vivo, time 0.083-24 hrs
[21] = AUC (0 to t) in Sprague-Dawley rat measured at 2 mg/kg, iv for 0.083 to 24 hrs by LC-MS/MS analysis; format: ADME, organism-based; design: dose 2 mg/kg, time upper 24 hrs, time lower 0.083 hrs, route iv; details: in vivo
[22] = Volume of distribution at steady state in Sprague-Dawley rat measured at 2 mg/kg, iv for 0.083 to 24 hrs by LC-MS/MS analysis; format: ADME, organism-based; details: in vivo, time 0.083-24 hrs, read-out: Vdss
[23] = biological target: Fibroblast growth factor receptor 1 (Homo sapiens, UniProt P11362); assay: Inhibition of FGFR1 (unknown origin) incubated for 10 mins followed by substrate addition measured after 60 mins by ADP-Glo luminescence assay
[24] = Half life in Sprague-Dawley rat measured at 2 mg/kg, iv for 0.083 to 24 hrs by LC-MS/MS analysis; format: ADME, organism-based; details: in vivo, time 0.083-24 hrs
[25] = Permeability of the compound at 10 uM preincubated in acceptor compartment for 16 hrs followed by 16 hrs incubation in donor compartment by PAMPA based LC-MS/MS analysis; format: ADME; details: time 32 hrs, read-out: permeability
[26] = biological target: Fibroblast growth factor receptor 3 (Homo sapiens, UniProt P22607); assay: Inhibition of FGFR3 (unknown origin) incubated for 10 mins followed by substrate addition measured after 60 mins by ADP-Glo luminescence assay
[27] = AUC (0 to t) in Sprague-Dawley rat measured at 10 mg/kg, po for 0.083 to 24 hrs by LC-MS/MS analysis; format: ADME, organism-based; design: dose 10 mg/kg, time upper 24 hrs, time lower 0.083 hrs, route po; details: in vivo
[28] = Tmax in Sprague-Dawley rat measured at 10 mg/kg, po for 0.083 to 24 hrs by LC-MS/MS analysis; format: ADME, organism-based; details: in vivo, time 0.083-24 hrs

Sequence of Fibroblast growth factor receptor 2 (P21802 whole entry): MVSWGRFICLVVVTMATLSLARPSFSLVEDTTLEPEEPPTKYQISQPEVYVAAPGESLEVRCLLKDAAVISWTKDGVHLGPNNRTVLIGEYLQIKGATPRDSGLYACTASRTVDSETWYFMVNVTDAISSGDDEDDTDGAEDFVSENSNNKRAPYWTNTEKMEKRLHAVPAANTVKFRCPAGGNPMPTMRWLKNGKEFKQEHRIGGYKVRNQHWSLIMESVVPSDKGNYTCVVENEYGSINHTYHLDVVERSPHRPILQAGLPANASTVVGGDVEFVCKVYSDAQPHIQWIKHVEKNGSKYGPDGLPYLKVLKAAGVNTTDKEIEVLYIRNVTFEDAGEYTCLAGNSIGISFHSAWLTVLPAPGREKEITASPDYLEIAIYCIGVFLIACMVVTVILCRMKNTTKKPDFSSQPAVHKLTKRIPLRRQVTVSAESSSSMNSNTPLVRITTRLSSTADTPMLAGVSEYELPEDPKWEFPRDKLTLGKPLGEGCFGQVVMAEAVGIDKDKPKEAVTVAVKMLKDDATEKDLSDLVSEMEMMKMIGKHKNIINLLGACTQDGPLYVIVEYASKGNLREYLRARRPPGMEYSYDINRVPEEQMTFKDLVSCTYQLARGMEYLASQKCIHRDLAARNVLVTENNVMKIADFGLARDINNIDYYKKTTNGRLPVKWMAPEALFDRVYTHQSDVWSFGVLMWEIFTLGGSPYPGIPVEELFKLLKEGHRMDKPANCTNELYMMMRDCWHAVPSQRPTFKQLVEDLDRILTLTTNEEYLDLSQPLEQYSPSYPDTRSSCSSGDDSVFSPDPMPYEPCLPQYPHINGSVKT
Sequence of Fibroblast growth factor receptor 1 (P11362 whole entry): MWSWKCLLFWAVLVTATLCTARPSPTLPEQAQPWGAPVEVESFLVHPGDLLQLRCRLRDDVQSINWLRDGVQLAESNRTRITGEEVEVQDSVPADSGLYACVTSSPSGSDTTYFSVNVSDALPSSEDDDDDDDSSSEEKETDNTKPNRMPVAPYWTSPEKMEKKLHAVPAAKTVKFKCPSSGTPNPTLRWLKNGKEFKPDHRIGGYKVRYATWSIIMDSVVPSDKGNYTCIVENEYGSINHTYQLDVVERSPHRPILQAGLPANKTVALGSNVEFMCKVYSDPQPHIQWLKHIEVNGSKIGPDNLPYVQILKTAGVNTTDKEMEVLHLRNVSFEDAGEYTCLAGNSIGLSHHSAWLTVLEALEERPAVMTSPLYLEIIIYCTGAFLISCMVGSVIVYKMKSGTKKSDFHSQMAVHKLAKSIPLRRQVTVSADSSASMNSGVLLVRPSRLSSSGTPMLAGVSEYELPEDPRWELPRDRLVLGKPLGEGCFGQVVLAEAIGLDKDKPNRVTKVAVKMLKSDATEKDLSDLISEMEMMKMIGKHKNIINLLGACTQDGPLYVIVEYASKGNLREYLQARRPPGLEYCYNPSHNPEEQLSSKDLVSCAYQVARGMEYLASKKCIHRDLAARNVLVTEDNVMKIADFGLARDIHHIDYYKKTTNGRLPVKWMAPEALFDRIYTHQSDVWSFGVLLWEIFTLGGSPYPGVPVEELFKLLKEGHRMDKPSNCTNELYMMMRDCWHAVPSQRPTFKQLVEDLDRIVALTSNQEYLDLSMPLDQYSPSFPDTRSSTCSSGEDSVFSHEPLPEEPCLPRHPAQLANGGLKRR
Sequence of Fibroblast growth factor receptor 3 (P22607 whole entry): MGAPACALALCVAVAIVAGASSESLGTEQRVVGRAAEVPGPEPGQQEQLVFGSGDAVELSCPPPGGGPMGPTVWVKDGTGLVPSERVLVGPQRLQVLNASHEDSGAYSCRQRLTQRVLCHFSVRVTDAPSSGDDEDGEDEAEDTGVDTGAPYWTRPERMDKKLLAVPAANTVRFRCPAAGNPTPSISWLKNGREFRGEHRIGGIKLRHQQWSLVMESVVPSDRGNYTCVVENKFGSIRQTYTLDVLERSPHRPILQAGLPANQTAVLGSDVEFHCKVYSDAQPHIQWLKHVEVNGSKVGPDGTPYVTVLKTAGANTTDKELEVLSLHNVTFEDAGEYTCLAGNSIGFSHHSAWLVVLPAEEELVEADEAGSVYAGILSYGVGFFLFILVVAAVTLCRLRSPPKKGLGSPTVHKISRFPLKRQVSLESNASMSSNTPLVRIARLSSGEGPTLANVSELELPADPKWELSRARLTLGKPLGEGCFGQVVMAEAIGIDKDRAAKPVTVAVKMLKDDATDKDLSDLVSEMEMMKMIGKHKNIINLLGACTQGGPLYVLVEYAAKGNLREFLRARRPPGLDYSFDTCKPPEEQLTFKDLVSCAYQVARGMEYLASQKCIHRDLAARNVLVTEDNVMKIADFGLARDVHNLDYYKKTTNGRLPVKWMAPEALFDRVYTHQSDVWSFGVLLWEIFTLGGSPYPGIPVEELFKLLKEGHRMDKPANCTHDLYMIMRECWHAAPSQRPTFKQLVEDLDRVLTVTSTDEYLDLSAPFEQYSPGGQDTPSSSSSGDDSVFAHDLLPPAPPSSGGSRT

Work on `C=CC(=O)N1CCC(c2cc3c(Oc4ccc5c(C(=O)NC)cccc5c4)ccnc3cc2OC)CC1` yielded an IC50 [1] of 125 nM, an IC50 [2] of 114 nM and an inhibition [3] of 24%.
In the case of `COc1cc2nccc(Oc3ccc(NC(=O)NC4CC4)c(Cl)c3)c2cc1C1CCN(C(=O)C(F)(F)F)CC1`, the IC50 [1] is reported as greater than 10000 nM, the IC50 [2] is reported as 1410 nM and the inhibition [3] is reported as 25.6%.
`C=CC(=O)N1CCC(c2cc3c(Oc4ccc5c(C(=O)NC)c(C)oc5c4)ccnc3cc2OC)CC1` gave an IC50 [1] of 41 nM, an IC50 [2] of 32.9 nM and an inhibition [3] of 40.7%.
For `C=CC(=O)N1CCC(c2cc3c(Oc4ccc(NC(=O)Nc5cc(C)on5)c(Cl)c4)ccnc3cc2OC)CC1`, the IC50 [1] was 664 nM, the IC50 [2] was 384 nM and the inhibition [3] was 36.5%.
`C=CC(=O)N1CCC(c2cc3c(Oc4cc5cc(C)[nH]c5cc4F)ccnc3cc2OC)CC1` showed an IC50 [1] of 313 nM, an IC50 [2] of 216 nM and an inhibition [3] of 20.6%.
With `C=CC(=O)N1CCC(c2cc3c(Oc4ccc(NC(=O)NC5CC5)c(Cl)c4)ccnc3cc2OCC)CC1` the IC50 [1] was 17.4 nM, the MRT last [4] was 9.6 min and the half-life [5] was 78 min. The IC50 [2] was 9.4 nM, the IC50 [6] was 5.2 nM and the MRT [7] was 85.2 min. The MRT [8] was 10.2 min, the Cmax [9] was 1680 ng/mL and the Tmax [10] was 4.8 min. It also gave a Cmax [11] of 1700 ng/mL, an AUC(0-inf) [12] of 1120 ng·h/mL and a solubility at 2 h, 10000 µM [13] of less than 0.073 µM. The pKa [14] was 5.28, the C0 [15] was 3090 ng/mL and the MRT last [16] was 79.8 min. It also gave an AUC(0-inf) [17] of 506 ng·h/mL, a bioavailability [18] of 43.7% and an IC50 [19] of 230 nM. The clearance [20] was 66 mL/min/kg, the AUC(0-t) [21] was 505 ng·h/mL and the Vd [22] was 0.659 L/kg. For the same molecule, the IC50 [23] was 4.5 nM, the half-life [24] was 14.4 min and the Papp at 16 h, 10 µM [25] was 1.11 ×10⁻⁶ cm/s. For the same molecule, the IC50 [26] was 5.5 nM, the AUC(0-t) [27] was 1100 ng·h/mL and the Tmax [28] was 15 min.
Molecule `C=CC(=O)N1CCC(c2cc3c(Oc4ccc(NC(=O)NC5CC5)c(Cl)c4)c(C#N)cnc3cc2OC)CC1` has an IC50 [1] greater than 10000 nM, an IC50 [2] of 8830 nM and an inhibition [3] of 15%.
With `C=CS(=O)(=O)N1CC=C(c2cc3c(Oc4ccc(NC(=O)NC5CC5)c(Cl)c4)ccnc3cc2OC)CC1` the IC50 [1] was 5080 nM, the IC50 [2] was greater than 10000 nM and the IC50 [19] was 4.65 nM.
`COc1cc2nccc(Oc3ccc(NC(=O)NC4CC4)c(Cl)c3)c2cc1C1=CCN(C(=O)CCl)CC1` showed an IC50 [1] of 1660 nM, an IC50 [2] greater than 10000 nM and an IC50 [19] of 294 nM.
In the case of `C=CC(=O)N1CCC(c2cc3c(Oc4ccc(NC(=O)NC5CC5)c(Cl)c4)ncnc3cc2OC)CC1`, the IC50 [1] is reported as 72.6 nM, the IC50 [2] is reported as 71.3 nM and the IC50 [19] is reported as 15 nM.
Work on `C=CC(=O)N1CCC(c2cc3c(Nc4ccc(F)c(Cl)c4)ccnc3cc2OC)CC1` yielded an IC50 [1] greater than 10000 nM, an IC50 [2] greater than 10000 nM and an inhibition [3] of 15.3%.
In the case of `C=CC(=O)N1CCC(c2cc3c(Oc4ccc(NC(=O)Cc5ccccc5)cc4F)ccnc3cc2OC)CC1`, the IC50 [1] is reported as 1350 nM, the IC50 [2] is reported as 2210 nM and the inhibition [3] is reported as 1.1%.
With `C=C(F)C(=O)N1CCC(c2cc3c(Oc4ccc(NC(=O)NC5CC5)c(Cl)c4)ccnc3cc2OC)CC1` the IC50 [1] was greater than 10000 nM, the IC50 [2] was greater than 10000 nM and the inhibition [3] was 21.6%.
With `C=CC(=O)N1CC=C(c2cc3c(Oc4ccc(NC(=O)NC5CC5)c(Cl)c4)ccnc3cc2OC)C1` the IC50 [1] was 438 nM, the IC50 [2] was 1520 nM and the IC50 [19] was 2.49 nM.
In the case of `C=CC(=O)N1CCC(c2cc3nccc(Oc4ccc(NC(=O)NC5CC5)c(Cl)c4)c3cc2OC)CC1`, the IC50 [1] is reported as greater than 10000 nM, the IC50 [2] is reported as greater than 10000 nM and the inhibition [3] is reported as 25.9%.

— ChEMBL document CHEMBL5346943, “Discovery and Structural Optimization of Novel Quinolone Derivatives as Potent Irreversible Pan-Fibroblast Growth Factor Receptor Inhibitors for Treating Solid Tumors” (J Med Chem, 2023)
